# Measured values taken from PubChem BioAssay (NCI).
#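 Cells were grown in 96-well plates and exposed to each compound for 48 hours at five concentrations; endpoints were interpolated linearly between bracketing concentrations, or set to the highest concentration if not reached. TGI is the concentration that stops growth completely.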
# Assays:
# Test in all cases: NCI-60 cell line screen, 48 h
# DMS 114 small cell lung = tested on: DMS 114 small cell lung
# EKVX NSCLC = tested on: EKVX NSCLC
# RPMI-8226 leukemia = tested on: RPMI-8226 leukemia
# SW-620 colon = tested on: SW-620 colon
# SR leukemia = tested on: SR leukemia
# HOP-62 NSCLC = tested on: HOP-62 NSCLC
# M14 melanoma = tested on: M14 melanoma
# RXF 393 renal = tested on: RXF 393 renal
# SNB-75 CNS = tested on: SNB-75 CNS
# CAKI-1 renal = tested on: CAKI-1 renal
# M19-MEL melanoma = tested on: M19-MEL melanoma
# KM12 colon = tested on: KM12 colon
# IGROV1 ovarian = tested on: IGROV1 ovarian
# OVCAR-3 ovarian = tested on: OVCAR-3 ovarian
# OVCAR-5 ovarian = tested on: OVCAR-5 ovarian
# SF-268 CNS = tested on: SF-268 CNS
# UACC-257 melanoma = tested on: UACC-257 melanoma
# SNB-78 CNS = tested on: SNB-78 CNS
# OVCAR-4 ovarian = tested on: OVCAR-4 ovarian
# COLO 205 colon = tested on: COLO 205 colon
# UO-31 renal = tested on: UO-31 renal
# SNB-19 CNS = tested on: SNB-19 CNS
# SF-295 CNS = tested on: SF-295 CNS
# TK-10 renal = tested on: TK-10 renal
# LOX IMVI melanoma = tested on: LOX IMVI melanoma
# 786-0 renal = tested on: 786-0 renal
# UACC-62 melanoma = tested on: UACC-62 melanoma
# SK-MEL-5 melanoma = tested on: SK-MEL-5 melanoma
# HCT-15 colon = tested on: HCT-15 colon
# HCC-2998 colon = tested on: HCC-2998 colon
# MALME-3M melanoma = tested on: MALME-3M melanoma
# KM20L2 colon = tested on: KM20L2 colon
# XF 498 CNS = tested on: XF 498 CNS
# K-562 leukemia = tested on: K-562 leukemia
# DLD-1 colon = tested on: DLD-1 colon
# HL-60(TB) leukemia = tested on: HL-60(TB) leukemia
# HCT-116 colon = tested on: HCT-116 colon
# SK-OV-3 ovarian = tested on: SK-OV-3 ovarian
# SK-MEL-28 melanoma = tested on: SK-MEL-28 melanoma
# A549 NSCLC = tested on: A549 NSCLC
# SF-539 CNS = tested on: SF-539 CNS
# ACHN renal = tested on: ACHN renal
# OVCAR-8 ovarian = tested on: OVCAR-8 ovarian
# U251 CNS = tested on: U251 CNS
# SN12C renal = tested on: SN12C renal
# A498 renal = tested on: A498 renal
# DMS 273 small cell lung = tested on: DMS 273 small cell lung
# CCRF-CEM leukemia = tested on: CCRF-CEM leukemia
# LXFL 529 NSCLC = tested on: LXFL 529 NSCLC
# HOP-92 NSCLC = tested on: HOP-92 NSCLC
# NCI-H23 lung = tested on: NCI-H23 lung
# HT29 colon = tested on: HT29 colon
# NCI-H460 lung = tested on: NCI-H460 lung
# NCI-H522 lung = tested on: NCI-H522 lung
# NCI-H226 lung = tested on: NCI-H226 lung
# MOLT-4 leukemia = tested on: MOLT-4 leukemia
# MDA-MB-435 = tested on: MDA-MB-435
# DU-145 prostate = tested on: DU-145 prostate
# MDA-N = tested on: MDA-N
# NCI/ADR-RES ovarian = tested on: NCI/ADR-RES ovarian
# PC-3 prostate = tested on: PC-3 prostate
# SK-MEL-2 melanoma = tested on: SK-MEL-2 melanoma
# T-47D breast = tested on: T-47D breast
# MCF7 breast = tested on: MCF7 breast
# BT-549 breast = tested on: BT-549 breast
# MDA-MB-231 breast = tested on: MDA-MB-231 breast
smiles,measurement,setting,value
CCOC(=O)C1N(S(=O)(=O)c2ccc(C)cc2)CCC12c1ccccc1NC2c1ccc(OC)c(OC)c1 (stereo unspecified),TGI,DMS 114 small cell lung,> 100 µM
same,TGI,EKVX NSCLC,> 100 µM
same,TGI,RPMI-8226 leukemia,> 100 µM
same,TGI,SW-620 colon,> 100 µM
same,TGI,SR leukemia,> 100 µM
same,TGI,HOP-62 NSCLC,> 100 µM
same,TGI,M14 melanoma,> 100 µM
same,TGI,RXF 393 renal,> 100 µM
same,TGI,SNB-75 CNS,> 100 µM
same,TGI,CAKI-1 renal,> 100 µM
same,TGI,M19-MEL melanoma,> 100 µM
same,TGI,KM12 colon,> 100 µM
same,TGI,IGROV1 ovarian,34 µM
same,TGI,OVCAR-3 ovarian,> 100 µM
same,TGI,OVCAR-5 ovarian,> 100 µM
same,TGI,SF-268 CNS,> 100 µM
same,TGI,UACC-257 melanoma,> 100 µM
same,TGI,SNB-78 CNS,> 100 µM
same,TGI,OVCAR-4 ovarian,> 100 µM
same,TGI,COLO 205 colon,> 100 µM
same,TGI,UO-31 renal,> 100 µM
same,TGI,SNB-19 CNS,> 100 µM
same,TGI,SF-295 CNS,> 100 µM
same,TGI,TK-10 renal,> 100 µM
same,TGI,LOX IMVI melanoma,> 100 µM
same,TGI,786-0 renal,> 100 µM
same,TGI,UACC-62 melanoma,> 100 µM
same,TGI,SK-MEL-5 melanoma,> 100 µM
same,TGI,HCT-15 colon,> 100 µM
same,TGI,HCC-2998 colon,> 100 µM
same,TGI,MALME-3M melanoma,> 100 µM
same,TGI,KM20L2 colon,> 100 µM
same,TGI,XF 498 CNS,> 100 µM
same,TGI,K-562 leukemia,> 100 µM
same,TGI,DLD-1 colon,> 100 µM
same,TGI,HL-60(TB) leukemia,> 100 µM
same,TGI,HCT-116 colon,> 100 µM
same,TGI,SK-OV-3 ovarian,> 100 µM
same,TGI,SK-MEL-28 melanoma,> 100 µM
same,TGI,A549 NSCLC,> 100 µM
same,TGI,SF-539 CNS,> 100 µM
same,TGI,ACHN renal,> 100 µM
same,TGI,OVCAR-8 ovarian,> 100 µM
same,TGI,U251 CNS,> 100 µM
same,TGI,SN12C renal,> 100 µM
same,TGI,A498 renal,> 100 µM
same,TGI,DMS 273 small cell lung,> 100 µM
same,TGI,CCRF-CEM leukemia,> 100 µM
same,TGI,LXFL 529 NSCLC,> 100 µM
same,TGI,HOP-92 NSCLC,24.4 µM
same,TGI,NCI-H23 lung,> 100 µM
same,TGI,HT29 colon,> 100 µM
same,TGI,NCI-H460 lung,> 100 µM
same,TGI,NCI-H522 lung,> 100 µM
same,TGI,NCI-H226 lung,> 100 µM
COc1ccc2nc(C)cc(NCCCCCCCCCNc3cc(C)nc4ccc(OC)cc34)c2c1,TGI,DMS 114 small cell lung,2.51 µM
same,TGI,MOLT-4 leukemia,> 34.7 µM
same,TGI,EKVX NSCLC,7.36 µM
same,TGI,RPMI-8226 leukemia,> 24.7 µM
same,TGI,SW-620 colon,2.32 µM
same,TGI,SR leukemia,29.3 µM
same,TGI,HOP-62 NSCLC,10.6 µM
same,TGI,M14 melanoma,5.9 µM
same,TGI,RXF 393 renal,5.96 µM
same,TGI,MDA-MB-435,2.95 µM
same,TGI,SNB-75 CNS,12.5 µM
same,TGI,CAKI-1 renal,18.3 µM
same,TGI,M19-MEL melanoma,31.9 µM
same,TGI,KM12 colon,2.74 µM
same,TGI,IGROV1 ovarian,9.1 µM
same,TGI,OVCAR-3 ovarian,2.76 µM
same,TGI,OVCAR-5 ovarian,15.2 µM
same,TGI,SF-268 CNS,11.3 µM
same,TGI,UACC-257 melanoma,21.2 µM
same,TGI,SNB-78 CNS,26.4 µM
same,TGI,OVCAR-4 ovarian,9.32 µM
same,TGI,COLO 205 colon,7.47 µM
same,TGI,UO-31 renal,28.3 µM
same,TGI,SNB-19 CNS,10.2 µM
same,TGI,SF-295 CNS,2.33 µM
same,TGI,TK-10 renal,9.77 µM
same,TGI,LOX IMVI melanoma,1.99 µM
same,TGI,786-0 renal,2.31 µM
same,TGI,UACC-62 melanoma,7.34 µM
same,TGI,DU-145 prostate,19.5 µM
same,TGI,SK-MEL-5 melanoma,3.11 µM
same,TGI,MDA-N,2.83 µM
same,TGI,NCI/ADR-RES ovarian,34.8 µM
same,TGI,HCT-15 colon,5.32 µM
same,TGI,PC-3 prostate,5.01 µM
same,TGI,SK-MEL-2 melanoma,10.8 µM
same,TGI,HCC-2998 colon,2.73 µM
same,TGI,MALME-3M melanoma,17.7 µM
same,TGI,KM20L2 colon,6.36 µM
same,TGI,XF 498 CNS,3.69 µM
same,TGI,K-562 leukemia,2.93 µM
same,TGI,DLD-1 colon,6.61 µM
same,TGI,HL-60(TB) leukemia,5.25 µM
same,TGI,HCT-116 colon,1.46 µM
same,TGI,SK-OV-3 ovarian,25.7 µM
same,TGI,SK-MEL-28 melanoma,29.9 µM
same,TGI,T-47D breast,3.46 µM
same,TGI,MCF7 breast,2.47 µM
same,TGI,A549 NSCLC,8.3 µM
same,TGI,SF-539 CNS,2.4 µM
same,TGI,ACHN renal,21.2 µM
same,TGI,OVCAR-8 ovarian,1.42 µM
same,TGI,U251 CNS,5.77 µM
same,TGI,SN12C renal,11.4 µM
same,TGI,A498 renal,43.4 µM
same,TGI,DMS 273 small cell lung,13.4 µM
same,TGI,CCRF-CEM leukemia,11.2 µM
same,TGI,BT-549 breast,21.1 µM
same,TGI,LXFL 529 NSCLC,2.4 µM
same,TGI,HOP-92 NSCLC,5.21 µM
same,TGI,NCI-H23 lung,6.89 µM
same,TGI,MDA-MB-231 breast,2.54 µM
same,TGI,HT29 colon,2.05 µM
same,TGI,NCI-H460 lung,1.77 µM
same,TGI,NCI-H522 lung,2.13 µM
same,TGI,NCI-H226 lung,27.6 µM
